According to patent EP0394122A2, “Use of tetracyclines to manufacture a medicament for the treatment and prevention of AIDS” (priority 1989, dated 1990):

Experiments:
[1] = test system: lignée lymphoblastoïde CEM clone 13; assay: Cytotoxicity on non-infected CEM clone 13 cells (MTT viability); type: cell-based, humaines
Experimental: Dans une microplaque de 96 puits on dépose 25 µl/puits d'une solution de produit à tester ou de tampon phosphate isotonique (TPI) dans le cas des contrôles. Les produits sont étudiés à différentes concentrations (souvent 8), à raison de 4 puits par concentration. On ajoute alors 125 µl d'une suspension de cellules CEM dans le milieu RPMI contenant 10 % de sérum de veau foetal, 40 U/ml de pénicilline, 40 µg/ml de streptomycine et 5 µg/ml de polybrène (3500 cellules par puits) et les microplaques sont incubées une heure à 37°C, sous une atmosphère contenant 5 % de gaz carbonique. Pour chaque concentration, l'essai est partagé en 2 parties : une partie sur cellules infectées, pour la détermination de l'activité antivirale et l'autre partie sur cellules non infectées, pour déterminer la cytotoxicité des produits. On infecte alors la première série avec HIV (100 µl par puit d'une suspension de virus LAV-1-BRU contenant 200-300 TCID50) tandis que l'autre série reçoit 100 µl de milieu RPMI tel que défini précédemment. Au bout de 7 jours d'incubation, 175 µl de surnageant sont prélevés et rejetés. La viabilité cellulaire est déterminée selon une modification de la technique décrite par R. Pauwels et coll., J. Virol.
Les puits, contenant encore les cellules (infectées ou non infectées), reçoivent 10 µl d'une solution de MTT (méthylthiazoletétrazolium) à 5 mg/ml dans du tampon phosphate isotonique. Pendant une période d'incubation de 4 heures, le MTT est converti en un sel de formazan (bleu) à l'intérieur des cellules vivantes et proportionnellement à leur nombre, alors que rien n'apparaît dans les puits ne contenant plus que des cellules mortes. On ajoute alors 120 µl d'isopropanol (contenant 0,04 mole/l d'acide chlorhydrique) et les microplaques sont agitées jusqu'à la solubilisation du bleu de formazan. L'absorption à 540 nm est lue avec un lecteur automatique de réactions ELISA en microplaques.
Pour les essais de plus longue durée, on procède comme décrit précédemment jusqu'au jour 7. A ce moment, 100 µl de cellules sont prélevés pour mesurer la proportion de cellules vivantes et le restant est remis en culture avec du milieu frais contenant les produits aux mêmes concentrations. Cette opération est répétée tous les 4 jours.

[2] = test system: reverse transcriptase du virus HIV; assay: Reverse transcriptase activity in culture supernatant of infected, protected CEM cells (virus production); type: cell-based
Description: Chaque échantillon est divisé en 2 parties, l'une recevant à nouveau le produit étudié et l'autre cultivée en l'absence de produit.
Les cellules sont cultivées pendant 2 mois.
Les cellules infectées traitées ou non de manière continue par la minocycline ou la doxycycline ont été examinées en ce qui concerne la production de virus. La technique utilisée pour la détermination virale a été celle du dosage de la reverse transcriptase du virus HIV.
L'activité de la reverse transcriptase est mesurée directement sur 50 µl de surnageant de culture. 10 µl de tampon contenant 0,5 M de KCl, 5 mM de dithiotreitol (DTT) et 0,5 % de Triton X-100 sont ajoutés à tous les micropuits contenant les 50 µl de surnageant à tester. 40 µl de tampon contenant 1,25 mM d'éthylène glycol-bis(β-aminoéthyl éther) (EGTA), 0,125 M de Tris.HCl pH 7,8, 12,5 mM de MgCl₂, 3 µCi de (³H) Thymidine triphosphate (TTP), 0,05 DO₂₆₀ d'acide polyadénylique - acide thymidylique (poly rA-oligo dT) sont ajoutés ensuite. La microplaque est couverte au moyen d'un film plastique et incubée 60 minutes à 37°C.
On arrête la réaction en ajoutant 20 µl d'une solution glacée de 120 mM de Na₄P₂O₇ dans 60 % d'acide trichloracétique et les échantillons sont placés 15 minutes sur un lit de glace.
Les précipités sont filtrés sur fibres de verre en utilisant un laveur de cellules (Skatron) et les filtres sont lavés avec une solution de 12 mM de Na₄P₂O₇ dans 5 % d'acide trichloracétique.
Les filtres sont séchés et la radioactivité est comptée après ajout d'un liquide scintillant. Les essais sont faits en triple.

[3] = product present du jour 0 au jour 18 (1,2 µg/ml), day 20 after infection
[4] = product present du jour 0 au jour 18 (1,2 µg/ml), day 39 after infection
[5] = product present du jour 0 au jour 18 (1,2 µg/ml), day 42 after infection
[6] = product present du jour 0 au jour 18 (1,2 µg/ml), day 46 after infection
[7] = product present du jour 0 au jour 18 (1,2 µg/ml), day 49 after infection
[8] = product present du jour 0 au jour 18 (1,2 µg/ml), day 53 after infection
[9] = product present du jour 0 au jour 18 (1,2 µg/ml), day 56 after infection
[10] = product present du jour 0 au jour 18 (1,2 µg/ml), day 60 after infection
[11] = product present du jour 0 au jour 18 (1,2 µg/ml), day 80 after infection
[12] = product present du jour 0 à la fin de l'expérience (1,2 µg/ml), day 20 after infection
[13] = product present du jour 0 à la fin de l'expérience (1,2 µg/ml), day 39 after infection
[14] = product present du jour 0 à la fin de l'expérience (1,2 µg/ml), day 42 after infection
[15] = product present du jour 0 à la fin de l'expérience (1,2 µg/ml), day 46 after infection
[16] = product present du jour 0 à la fin de l'expérience (1,2 µg/ml), day 49 after infection
[17] = product present du jour 0 à la fin de l'expérience (1,2 µg/ml), day 53 after infection
[18] = product present du jour 0 à la fin de l'expérience (1,2 µg/ml), day 56 after infection
[19] = product present du jour 0 à la fin de l'expérience (1,2 µg/ml), day 60 after infection
[20] = product present du jour 0 à la fin de l'expérience (1,2 µg/ml), day 80 after infection

CN(C)c1ccc(O)c2c1C[C@H]1C[C@H]3[C@H](N(C)C)C(O)=C(C(N)=O)C(=O)[C@@]3(O)C(O)=C1C2=O [Exemple 5, minocycline]
Cellules non infectées Densité optique ([1]; 0,01 µg/ml, JOUR 14): 1,100
Cellules non infectées Densité optique ([1]; 0,01 µg/ml, JOUR 18): 1,050
Cellules non infectées Densité optique ([1]; 0,01 µg/ml, day 7): 1,590
Cellules non infectées Densité optique ([1]; 0,04 µg/ml, JOUR 14): 1,250
Cellules non infectées Densité optique ([1]; 0,04 µg/ml, JOUR 18): 1,050
Cellules non infectées Densité optique ([1]; 0,04 µg/ml, day 7): 1,650
Cellules non infectées Densité optique ([1]; 0,12 µg/ml, JOUR 14): 1,200
Cellules non infectées Densité optique ([1]; 0,12 µg/ml, JOUR 18): 1,100
Cellules non infectées Densité optique ([1]; 0,12 µg/ml, day 7): 1,750
Cellules non infectées Densité optique ([1]; 0,37 µg/ml, JOUR 14): 1,250
Cellules non infectées Densité optique ([1]; 0,37 µg/ml, JOUR 18): 1,150
Cellules non infectées Densité optique ([1]; 0,37 µg/ml, day 7): 1,670
Cellules non infectées Densité optique ([1]; 10 µg/ml, JOUR 14): 0,100
Cellules non infectées Densité optique ([1]; 10 µg/ml, JOUR 18): 0,100
Cellules non infectées Densité optique ([1]; 10 µg/ml, day 7): 0,480
Cellules non infectées Densité optique ([1]; 30 µg/ml, day 7): 0,420
Cellules non infectées Densité optique ([1]; 1,11 µg/ml, JOUR 14): 1,200
Cellules non infectées Densité optique ([1]; 1,11 µg/ml, JOUR 18): 1,100
Cellules non infectées Densité optique ([1]; 1,11 µg/ml, day 7): 1,760
Cellules non infectées Densité optique ([1]; 3,33 µg/ml, JOUR 14): 0,350
Cellules non infectées Densité optique ([1]; 3,33 µg/ml, JOUR 18): 0,400
Cellules non infectées Densité optique ([1]; 3,33 µg/ml, day 7): 1,650
Activité de la reverse transcriptase [2, 3]: 27 coups/mn x 10⁻³
Activité de la reverse transcriptase [2, 4]: 21 coups/mn x 10⁻³
Activité de la reverse transcriptase [2, 5]: 37 coups/mn x 10⁻³
Activité de la reverse transcriptase [2, 6]: 19 coups/mn x 10⁻³
Activité de la reverse transcriptase [2, 7]: 21 coups/mn x 10⁻³
Activité de la reverse transcriptase [2, 8]: 17 coups/mn x 10⁻³
Activité de la reverse transcriptase [2, 9]: 3 coups/mn x 10⁻³
Activité de la reverse transcriptase [2, 10]: 2 coups/mn x 10⁻³
Activité de la reverse transcriptase [2, 11]: 3 coups/mn x 10⁻³
Activité de la reverse transcriptase [2, 12]: 25 coups/mn x 10⁻³
Activité de la reverse transcriptase [2, 13]: 33 coups/mn x 10⁻³
Activité de la reverse transcriptase [2, 14]: 33 coups/mn x 10⁻³
Activité de la reverse transcriptase [2, 15]: 29 coups/mn x 10⁻³
Activité de la reverse transcriptase [2, 16]: 37 coups/mn x 10⁻³
Activité de la reverse transcriptase [2, 17]: 14 coups/mn x 10⁻³
Activité de la reverse transcriptase [2, 18]: 2 coups/mn x 10⁻³
Activité de la reverse transcriptase [2, 19]: 2 coups/mn x 10⁻³
Activité de la reverse transcriptase [2, 20]: 5 coups/mn x 10⁻³

doxycycline [Exemple 2]
Cellules non infectées Densité optique ([1]; 0,01 µg/ml, JOUR 14): 0,980
Cellules non infectées Densité optique ([1]; 0,01 µg/ml, JOUR 18): 1,100
Cellules non infectées Densité optique ([1]; 0,01 µg/ml, day 7): 1,530
Cellules non infectées Densité optique ([1]; 0,04 µg/ml, JOUR 14): 0,950
Cellules non infectées Densité optique ([1]; 0,04 µg/ml, JOUR 18): 1,050
Cellules non infectées Densité optique ([1]; 0,04 µg/ml, day 7): 1,34
Cellules non infectées Densité optique ([1]; 0,12 µg/ml, JOUR 14): 1,020
Cellules non infectées Densité optique ([1]; 0,12 µg/ml, JOUR 18): 1,020
Cellules non infectées Densité optique ([1]; 0,12 µg/ml, day 7): 1,53
Cellules non infectées Densité optique ([1]; 0,37 µg/ml, JOUR 14): 1,000
Cellules non infectées Densité optique ([1]; 0,37 µg/ml, JOUR 18): 1,000
Cellules non infectées Densité optique ([1]; 0,37 µg/ml, day 7): 1,60
Cellules non infectées Densité optique ([1]; 10 µg/ml, JOUR 14): 0,100
Cellules non infectées Densité optique ([1]; 10 µg/ml, JOUR 18): 0,100
Cellules non infectées Densité optique ([1]; 10 µg/ml, day 7): 0,740
Cellules non infectées Densité optique ([1]; 30 µg/ml, day 7): 0,2
Cellules non infectées Densité optique ([1]; 1,11 µg/ml, JOUR 14): 0,960
Cellules non infectées Densité optique ([1]; 1,11 µg/ml, JOUR 18): 1,020
Cellules non infectées Densité optique ([1]; 1,11 µg/ml, day 7): 1,50
Cellules non infectées Densité optique ([1]; 3,33 µg/ml, JOUR 14): 0,950
Cellules non infectées Densité optique ([1]; 3,33 µg/ml, JOUR 18): 0,950
Cellules non infectées Densité optique ([1]; 3,33 µg/ml, day 7): 1,50
Activité de la reverse transcriptase [2, 3]: 21 coups/mn x 10⁻³
Activité de la reverse transcriptase [2, 4]: 30 coups/mn x 10⁻³
Activité de la reverse transcriptase [2, 5]: 31 coups/mn x 10⁻³
Activité de la reverse transcriptase [2, 6]: 21 coups/mn x 10⁻³
Activité de la reverse transcriptase [2, 7]: 24 coups/mn x 10⁻³
Activité de la reverse transcriptase [2, 8]: 14 coups/mn x 10⁻³
Activité de la reverse transcriptase [2, 9]: 2 coups/mn x 10⁻³
Activité de la reverse transcriptase [2, 10]: 3 coups/mn x 10⁻³
Activité de la reverse transcriptase [2, 11]: 2 coups/mn x 10⁻³
Activité de la reverse transcriptase [2, 12]: 25 coups/mn x 10⁻³
Activité de la reverse transcriptase [2, 13]: 26 coups/mn x 10⁻³
Activité de la reverse transcriptase [2, 14]: 31 coups/mn x 10⁻³
Activité de la reverse transcriptase [2, 15]: 27 coups/mn x 10⁻³
Activité de la reverse transcriptase [2, 16]: 18 coups/mn x 10⁻³
Activité de la reverse transcriptase [2, 17]: 10 coups/mn x 10⁻³
Activité de la reverse transcriptase [2, 18]: 2 coups/mn x 10⁻³
Activité de la reverse transcriptase [2, 19]: 1,4 coups/mn x 10⁻³
Activité de la reverse transcriptase [2, 20]: 2 coups/mn x 10⁻³
